Laboratory results from US11414437B2, “Borate compound, and synthesis method therefor and uses thereof” (CHENGDU ORIGIN BIOTECHNOLOGY LIMITED COMPANY, priority 2017, dated 2022).
Counter-ions that a name gives are not always drawn. Like-named read-outs stand apart in the source and are kept apart here.

Legend:
[1] = system: MM.1S (human multiple myeloma cell); assay: In vitro activity test (CCK-8 cell growth inhibition); type: cell-based; conditions: MM1.S, 48 hours incubation, read-out: MM.IS cell GI50 (μM) value
Method: (§1) Cells RPMI-8226 (human multiple myeloma cell) and MM.1S (human multiple myeloma cell) were cultured in a RPMI 1640 medium containing 10% fetal bovine serum at 37[…] under 5% CO2 to a logarithmic growth phase. The cells were respectively inoculated into a 96-well culture plate in a quantity of 3×10^4/well. After culturing for 24 hours at 37[…] under 5% CO2, a solvent control DMSO (dimethyl sulfoxide) or a tested compound (the tested compound taken 0.3 μM as an initial concentration, was diluted 3 times each time, and was diluted 5 times in total to obtain 6 concentration gradients) dissolved in the DMSO was added into the cells. The tested compound was incubated with the cells for 48 hours at 37[…] under 5% CO2. A CCK-8 reagent was added into each well, and incubated at 37 °C for 2 hours according to a reagent specification, and an optical density value of each well was read at a wavelength of 450 nm using a spectrophotometer.
(§2) An optical density value of the cells when the medicine acted for 0 hour was set as a Tz value, which represented a value of the cells when the medicine was added. The optical density value of the cells when the solvent control DMSO acted for 48 hours was set as a C value; and the optical density value of the cells when the tested compound acted for 48 hours was set as a Ti value. According to a method proposed by the NIH-NCI (National Institutes of Health-National Cancer Institute) of the United States, a response of the cells to a medicine was calculated: when Ti≥Tz, the response was [(Ti−Tz)/(C−Tz)]×100; and when Ti<Tz, the response was [(Ti−Tz)/Tz]×100. According to the calculation above, a GI50 value (a concentration of the tested compound required when a cell growth inhibition rate was 50%) was calculated by the 4 Parameter Logistic Model in the XLfit software.

[2] = system: RPMI-8226 (human multiple myeloma cell); assay: as above; type: cell-based; conditions: 48 hours incubation
Method: as §1, §2

SD rats = conditions: for maximum tolerance dose: female rats, single intragastric dose
Source text: The test was a single-dose toxicity test of SD rats by intragastric administration through mouth.

[3] = system: MM.1S human multiple myeloma SCID mouse transplanted tumor; assay: Pharmacodynamic test, SCID mouse transplanted tumor model; type: in vivo; conditions: 0.0166 mmol/kg intragastric; for Average tumor relative volume RVT5 / Average tumor relative volume RVT8 / Average tumor relative volume RVT12 / Average tumor relative volume RVT15 / Average tumor relative volume RVT18: twice a week; for Average tumor relative volume RVT5 / Average tumor relative volume RVT8 / Average tumor relative volume RVT12 / Average tumor relative volume RVT15 / Average tumor relative volume RVT18 / Tumor weight (g): X ± SD; for Tumor weight (g): after the 18th day
Method: In the experiment, a SCID mouse transplanted tumor model of a human multiple myeloma cell line MM.1S was used. Specific modeling steps were as follows: frozen MM.1S cells were resuscitated and cultured in vitro according to a routine, and the cells were collected in a logarithmic growth phase, and diluted with PBS to form a tumor cell suspension with a concentration of 5×10^7/ml. […] About 1 week to 2 weeks after injection, the mass was palpable in axillary, and in vivo passage was performed when a tumor volume was larger than 500 mm^3. After the mouse was killed by a neck pulling method, a body surface was disinfected, skin was cut open, aseptic operation was performed, a tumor tissue was peeled off from an axillary subcutaneous tissue, a fibrous capsule was removed, and the tumor was taken out. The tumor was washed clean in normal saline, and then cut, and after removing the central necrotic part, the tumor tissue with good growth, reddish color and fish flesh shape was selected, then was cut into 1 mm×1 mm×1 mm small pieces, and placed in normal saline for later use. The cut tumor was placed in a mouth of a No. 18 trocar, iodized cotton was used to disinfect the side of the armpit close to the back of the mouse, and local inoculation was performed. The transplanted tumor used in the test was the 4th generation of in vivo passage. When the tumor volume of most SCID mice of in vivo passage was larger than 100 mm^3, the tumor volume was measured and calculated, and the mice were randomly grouped according to the tumor volume.
The administration mode was intragastric administration through mouth, with an administration volume of 10 ml/kg. The model control group was given the same volume of solvent intragastrically. The mice were all intragastrically administrated through mouth twice a week for a total of 5 times, i.e., the mice were administrated at the 1st, 5th, 8th, 12th and 15th days of the experiment, with a duration of 18 days.
Doses of different tested samples were equimolar, with a specific dose of 0.0166 mmol/kg; and the model control group was only given normal saline. The medicines were 8b and 8l, as well as Ixazomib Citrate (MLN9708) and Ixazomib (MLN2238).
On the 5th, 8th, 12th, 15th and 18th days after administration, a short diameter (a) and a long diameter (b) of the tumor of each mouse were measured with a vernier caliper, and the tumor volume was calculated according to a formula (a^2×b)/2. A relative tumor volume (RTV) was calculated based on the tumor volume measured and calculated, RTV=Vt/V0. V0 was the tumor volume at random grouping (i.e., d0) and Vt was the tumor volume at each measurement (i.e., dn). A relative tumor proliferation rate of an anti-tumor activity evaluation index was calculated according to the following formula: relative tumor proliferation rate T/C (%): […]
(Note: TRTV was a RTV of the treatment group; and CRTV was a RTV of the model control group. An evaluation standard of a curative effect was T/C %≤40%, and the medicine was effective when P<0.05 after statistical treatment).
After weighing and measuring the tumor on the 18th day, all animals were sacrificed, and the tumor was taken and weighed.

[4] = dose 1, 0.001108 mmol/kg single intragastric dose, 6 female rats, 14 days observation
[5] = dose 1, 0.001108 mmol/kg single intragastric dose, 6 male rats, 14 days observation
[6] = dose 2, 0.001662 mmol/kg single intragastric dose, 6 female rats, 14 days observation
[7] = dose 2, 0.001662 mmol/kg single intragastric dose, 6 male rats, 14 days observation
[8] = dose 4, 0.00277 mmol/kg single intragastric dose, 6 female rats, 14 days observation
[9] = dose 4, 0.00277 mmol/kg single intragastric dose, 6 male rats, 14 days observation
[10] = dose 3, 0.002216 mmol/kg single intragastric dose, 6 female rats, 14 days observation
[11] = dose 3, 0.002216 mmol/kg single intragastric dose, 6 male rats, 14 days observation
[12] = female, rat, in vivo, 0.001108 mmol/kg, 14 days
[13] = male, rat, in vivo, 0.001108 mmol/kg, 14 days
[14] = male, rat, in vivo, 0.002216 mmol/kg, 14 days

SMILES | GI50 [1] | GI50 [2] | Female Suvival (SD rats; [4]) | Male Suvival (SD rats; [5]) | Female Death (SD rats; [6]) | Female Suvival (SD rats; [6]) | Male Death (SD rats; [7]) | Male Suvival (SD rats; [7]) | Female Death (SD rats; [8]) | Female Suvival (SD rats; [8]) | Male Death (SD rats; [9]) | Male Suvival (SD rats; [9]) | maximum tolerance dose (SD rats) | Relative tumor proliferation rate T/C(%) ([3]; 5th day) | Average tumor relative volume RVT5 ([3]; 5th day) | Relative tumor proliferation rate T/C(%) ([3]; 8th day) | Average tumor relative volume RVT8 ([3]; 8th day) | Relative tumor proliferation rate T/C(%) ([3]; 12th day) | Average tumor relative volume RVT12 ([3]; 12th day) | Relative tumor proliferation rate T/C(%) ([3]; 15th day) | further results
CC(C)C[C@H](NC(=O)CNC(=O)c1cc(Cl)ccc1Br)B1OCCNCCO1 [drawing 42] | 0.00816 µM | 0.006 µM |  |  |  |  |  |  |  |  |  |  |  |  |  |  |  |  |  |  | 
CC(C)C[C@H](NC(=O)CNC(=O)c1cc(Cl)ccc1Cl)B1OC(=O)C(CC(=O)O)(CC(=O)O)O1 [Ixazomib (MLN9708), Ixazomib Citrate] |  |  | 6 | 6 | 1 | 5 | 0 | 6 | 6 | 0 | 0 | 6 | 0.001108 mmol/kg | 82.56^★★ % | 1.431 ± 0.452^★★ | 20.94% | 0.571 ± 0.305 | 6.13^★★ % | 0.245 ± 0.123^★★▴▴ | 4.42^★★ % | Female Death (SD rats; [4]): 0; Male Death (SD rats; [5]): 0; Female Death (SD rats; rat, in vivo): 3; Female Suvival (SD rats; rat, in vivo): 3; Male Death (SD rats; rat, in vivo): 0; Male Suvival (SD rats; rat, in vivo): 6; Average tumor relative volume RVT15 ([3]; 15th day): 0.214 ± 0.133^★★▴▴; Relative tumor proliferation rate T/C(%) ([3]; 18th day): 3.06^★★ %; Average tumor relative volume RVT18 ([3]; 18th day): 0.205 ± 00.151^★★▴▴; Tumor weight (g) [3]: 0.284 ± 0.312^★ g
CC(C)C[C@H](NC(=O)CNC(=O)c1cc(Br)ccc1Cl)B1OCCNCCO1 [compound 8d] |  |  | 6 | 6 | 2 | 4 | 0 | 6 | 6 | 0 | 0 | 6 |  |  |  |  |  |  |  |  | Female Death (SD rats; [10]): 5; Female Suvival (SD rats; [10]): 1; Male Suvival (SD rats; [11]): 6; Female Death (SD rats; [12]): 0; Male Death (SD rats; [13]): 0; Male Death (SD rats; [14]): 0
CC(C)C[C@H](NC(=O)CNC(=O)c1cc(Cl)ccc1Cl)B(O)O [Ixazomib (MLN2238), Ixazomib] |  |  | 6 | 6 | 2 | 4 | 0 | 6 | 6 | 0 | 0 | 6 | 0.001108 mmol/kg | 87.8^★★ % | 1.522 ± 0.273^★★ | 45.44^★ % | 1.238 ± 0.841^★▴▴ | 22.51^★★ % | 0.898 ± 0.749^★★▴▴ | 10.8^★★ % | Female Death (SD rats; [4]): 0; Male Death (SD rats; [5]): 0; Female Death (SD rats; rat, in vivo): 4; Female Suvival (SD rats; rat, in vivo): 2; Male Death (SD rats; rat, in vivo): 0; Male Suvival (SD rats; rat, in vivo): 6; Average tumor relative volume RVT15 ([3]; 15th day): 0.489 ± 0.343^★★▴▴; Relative tumor proliferation rate T/C(%) ([3]; 18th day): 2.43^★★ %; Average tumor relative volume RVT18 ([3]; 18th day): 0.163 ± 0.132^★★▴▴; Tumor weight (g) [3]: 0.374 ± 0.291^★★ g
CC(C)C[C@H](NC(=O)CNC(=O)c1cc(Cl)ccc1Cl)B1OC(=O)[C@@H](c2ccccc2)O1 [drawing 43] | 0.0186 µM | 0.0216 µM |  |  |  |  |  |  |  |  |  |  |  |  |  |  |  |  |  |  | 
CC(C)C[C@H](NC(=O)CNC(=O)c1cc(Br)ccc1Cl)B1OCCNCCO1 [drawing 41] | 0.00713 µM | 0.00651 µM |  |  |  |  |  |  |  |  |  |  |  |  |  |  |  |  |  |  | 
CC(C)C[C@H](NC(=O)CNC(=O)c1cc(Br)ccc1Cl)B1OC(=O)[C@@H](c2ccccc2)O1 [drawing 40] | 0.00275 µM | 0.00598 µM |  |  |  |  |  |  |  |  |  |  |  |  |  |  |  |  |  |  | 
CC(C)C[C@H](NC(=O)CNC(=O)c1cc(Br)ccc1Cl)B1OC(=O)c2ccccc2O1 [drawing 39] | 0.00209 µM | 0.00619 µM |  |  |  |  |  |  |  |  |  |  |  |  |  |  |  |  |  |  | 
CC(C)C[C@H](NC(=O)CNC(=O)c1cc(Cl)ccc1Cl)B1OC(=O)[C@@H](c2ccccc2)O1 [compound 8l, 2-chloro-5-chloro-N-[2-({(1R)-3-methyl-1-[(5R)-4-oxo-5-phenyl-1,3,2-dioxaborolan-2-yl]butyl}amino)-2-oxoethyl]benzamide] |  |  | 6 | 6 | 1 | 5 | 0 | 6 | 6 | 0 | 0 | 6 | 0.001108 mmol/kg | 103.30^★★ % | 1.791 ± 0.540^★★ | 63.82^★★ % | 1.739 ± 0.783^★★▴ | 36.37^★★ % | 1.451 ± 0.676^★★▴▴ | 23.24^★★ % | Female Death (SD rats; [10]): 2; Female Suvival (SD rats; [10]): 4; Male Suvival (SD rats; [11]): 6; Female Death (SD rats; [12]): 0; Male Death (SD rats; [13]): 0; Male Death (SD rats; [14]): 0; Average tumor relative volume RVT15 ([3]; 15th day): 1.127 ± 0.667^★★▴▴; Relative tumor proliferation rate T/C(%) ([3]; 18th day): 8.38^★ %; Average tumor relative volume RVT18 ([3]; 18th day): 0.561 ± 0.468^★★▴▴; Tumor weight (g) [3]: 0.560 ± 0.566^★ g
